PubChem BioAssay (NCI)
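1) Cells in 96-well plates. 2) Compound, 48 h, 5 concentrations. 3) Linear interpolation between surrounding doses. 4) Unreached endpoint = highest concentration. GI50 marks 50% less growth. TGI: total growth inhibition.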

Legend:
Test in all cases: DTP human tumour cell line panel, 48 h
NCI-H460 lung = system: NCI-H460 lung
M14 melanoma = system: M14 melanoma
HOP-62 NSCLC = system: HOP-62 NSCLC
SK-MEL-5 melanoma = system: SK-MEL-5 melanoma
MCF7 breast = system: MCF7 breast
U251 CNS = system: U251 CNS
MOLT-4 leukemia = system: MOLT-4 leukemia
KM12 colon = system: KM12 colon
RPMI-8226 leukemia = system: RPMI-8226 leukemia
UACC-257 melanoma = system: UACC-257 melanoma
EKVX NSCLC = system: EKVX NSCLC
LOX IMVI melanoma = system: LOX IMVI melanoma
RXF 393 renal = system: RXF 393 renal
786-0 renal = system: 786-0 renal
NCI-H23 lung = system: NCI-H23 lung
OVCAR-3 ovarian = system: OVCAR-3 ovarian
HCT-116 colon = system: HCT-116 colon
NCI-H522 lung = system: NCI-H522 lung
SNB-19 CNS = system: SNB-19 CNS
NCI-H226 lung = system: NCI-H226 lung
SK-OV-3 ovarian = system: SK-OV-3 ovarian
NCI/ADR-RES ovarian = system: NCI/ADR-RES ovarian
OVCAR-5 ovarian = system: OVCAR-5 ovarian
HS 578T breast = system: HS 578T breast
OVCAR-8 ovarian = system: OVCAR-8 ovarian
UO-31 renal = system: UO-31 renal
MDA-MB-231 breast = system: MDA-MB-231 breast
A498 renal = system: A498 renal
MALME-3M melanoma = system: MALME-3M melanoma
COLO 205 colon = system: COLO 205 colon
HCT-15 colon = system: HCT-15 colon
MDA-MB-435 = system: MDA-MB-435
SR leukemia = system: SR leukemia
HOP-92 NSCLC = system: HOP-92 NSCLC
CCRF-CEM leukemia = system: CCRF-CEM leukemia
PC-3 prostate = system: PC-3 prostate
SNB-75 CNS = system: SNB-75 CNS
OVCAR-4 ovarian = system: OVCAR-4 ovarian
ACHN renal = system: ACHN renal
IGROV1 ovarian = system: IGROV1 ovarian
HL-60(TB) leukemia = system: HL-60(TB) leukemia
BT-549 breast = system: BT-549 breast
T-47D breast = system: T-47D breast
SN12C renal = system: SN12C renal
HT29 colon = system: HT29 colon
SW-620 colon = system: SW-620 colon
UACC-62 melanoma = system: UACC-62 melanoma
HCC-2998 colon = system: HCC-2998 colon
K-562 leukemia = system: K-562 leukemia
A549 NSCLC = system: A549 NSCLC
SF-295 CNS = system: SF-295 CNS
SF-268 CNS = system: SF-268 CNS
SK-MEL-2 melanoma = system: SK-MEL-2 melanoma
SK-MEL-28 melanoma = system: SK-MEL-28 melanoma
SF-539 CNS = system: SF-539 CNS
TK-10 renal = system: TK-10 renal

In the case of `CC[C@H](C)[C@H]1NC(=O)[C@@H]([C@H](O)C(C)C)NC(=O)[C@@H](C)N(C)C(=O)[C@H](C)N(C)C(=O)[C@H](CC(C)C)NC(=O)[C@H](CC(C)C)N(C)C(=O)[C@H](C)N(C)C1=O`, the GI50 (NCI-H460 lung) is reported as 0.17 µM, the TGI (NCI-H460 lung) is reported as 2.24 µM and the GI50 (M14 melanoma) is reported as 0.274 µM. It also gave a TGI (M14 melanoma) of 3.85 µM, a GI50 (HOP-62 NSCLC) of 0.225 µM and a TGI (HOP-62 NSCLC) of 4.26 µM. For the same molecule, the GI50 (SK-MEL-5 melanoma) was 0.516 µM, the TGI (SK-MEL-5 melanoma) was > 14.3 µM and the GI50 (MCF7 breast) was 0.192 µM. For the same molecule, the TGI (MCF7 breast) was > 14.3 µM, the GI50 (U251 CNS) was 0.265 µM and the TGI (U251 CNS) was > 14.3 µM. For the same molecule, the GI50 (MOLT-4 leukemia) was 0.512 µM, the TGI (MOLT-4 leukemia) was > 14.3 µM and the GI50 (KM12 colon) was 0.326 µM. The TGI (KM12 colon) was > 14.3 µM, the GI50 (RPMI-8226 leukemia) was 0.446 µM and the TGI (RPMI-8226 leukemia) was 5.97 µM. The GI50 (UACC-257 melanoma) was 0.451 µM, the TGI (UACC-257 melanoma) was > 14.3 µM and the GI50 (EKVX NSCLC) was 0.341 µM. The TGI (EKVX NSCLC) was > 14.3 µM, the GI50 (LOX IMVI melanoma) was 0.416 µM and the TGI (LOX IMVI melanoma) was > 14.3 µM. For the same molecule, the GI50 (RXF 393 renal) was 0.256 µM, the TGI (RXF 393 renal) was 1.9 µM and the GI50 (786-0 renal) was 0.267 µM. The TGI (786-0 renal) was > 14.3 µM, the GI50 (NCI-H23 lung) was 0.272 µM and the TGI (NCI-H23 lung) was > 14.3 µM. The GI50 (OVCAR-3 ovarian) was 0.39 µM, the TGI (OVCAR-3 ovarian) was > 14.3 µM and the GI50 (HCT-116 colon) was 0.198 µM. For the same molecule, the TGI (HCT-116 colon) was > 14.3 µM, the GI50 (NCI-H522 lung) was 0.329 µM and the TGI (NCI-H522 lung) was 4.7 µM. The GI50 (SNB-19 CNS) was 0.266 µM, the TGI (SNB-19 CNS) was > 14.3 µM and the GI50 (NCI-H226 lung) was 0.456 µM. It also gave a TGI (NCI-H226 lung) of 12.4 µM, a GI50 (SK-OV-3 ovarian) of 0.418 µM and a TGI (SK-OV-3 ovarian) of 11.1 µM. The GI50 (NCI/ADR-RES ovarian) was 2.3 µM, the TGI (NCI/ADR-RES ovarian) was > 14.3 µM and the GI50 (OVCAR-5 ovarian) was 0.367 µM. The TGI (OVCAR-5 ovarian) was 13.3 µM, the GI50 (HS 578T breast) was 0.261 µM and the TGI (HS 578T breast) was 4.75 µM. The GI50 (OVCAR-8 ovarian) was 0.391 µM, the TGI (OVCAR-8 ovarian) was > 14.3 µM and the GI50 (UO-31 renal) was 0.383 µM. For the same molecule, the TGI (UO-31 renal) was > 14.3 µM, the GI50 (MDA-MB-231 breast) was 0.507 µM and the TGI (MDA-MB-231 breast) was > 14.3 µM. The GI50 (A498 renal) was 0.468 µM, the TGI (A498 renal) was 5.33 µM and the GI50 (MALME-3M melanoma) was 0.286 µM. It also gave a TGI (MALME-3M melanoma) of 10.5 µM, a GI50 (COLO 205 colon) of 0.278 µM and a TGI (COLO 205 colon) of 4.39 µM. For the same molecule, the GI50 (HCT-15 colon) was 0.538 µM, the TGI (HCT-15 colon) was > 14.3 µM and the GI50 (MDA-MB-435) was 0.376 µM. For the same molecule, the TGI (MDA-MB-435) was > 14.3 µM, the GI50 (SR leukemia) was 0.526 µM and the TGI (SR leukemia) was > 14.3 µM. The GI50 (HOP-92 NSCLC) was 0.397 µM, the TGI (HOP-92 NSCLC) was 12.1 µM and the GI50 (CCRF-CEM leukemia) was 0.562 µM. The TGI (CCRF-CEM leukemia) was > 14.3 µM, the GI50 (PC-3 prostate) was 0.364 µM and the TGI (PC-3 prostate) was > 14.3 µM. For the same molecule, the GI50 (SNB-75 CNS) was 0.28 µM, the TGI (SNB-75 CNS) was > 14.3 µM and the GI50 (OVCAR-4 ovarian) was 0.409 µM. The TGI (OVCAR-4 ovarian) was > 14.3 µM, the GI50 (ACHN renal) was 0.401 µM and the TGI (ACHN renal) was > 14.3 µM. For the same molecule, the GI50 (IGROV1 ovarian) was 0.276 µM, the TGI (IGROV1 ovarian) was > 14.3 µM and the GI50 (HL-60(TB) leukemia) was 0.995 µM. The TGI (HL-60(TB) leukemia) was > 14.3 µM, the GI50 (BT-549 breast) was 0.436 µM and the TGI (BT-549 breast) was 8.46 µM. For the same molecule, the GI50 (T-47D breast) was 0.164 µM, the TGI (T-47D breast) was 1.15 µM and the GI50 (SN12C renal) was 0.221 µM. The TGI (SN12C renal) was > 14.3 µM, the GI50 (HT29 colon) was 0.257 µM and the TGI (HT29 colon) was > 14.3 µM. The GI50 (SW-620 colon) was 0.327 µM, the TGI (SW-620 colon) was > 14.3 µM and the GI50 (UACC-62 melanoma) was 0.331 µM. For the same molecule, the TGI (UACC-62 melanoma) was 4.07 µM, the GI50 (HCC-2998 colon) was 0.531 µM and the TGI (HCC-2998 colon) was > 14.3 µM. The GI50 (K-562 leukemia) was 0.547 µM, the TGI (K-562 leukemia) was > 14.3 µM and the GI50 (A549 NSCLC) was 0.257 µM. The TGI (A549 NSCLC) was > 14.3 µM, the GI50 (SF-295 CNS) was 0.319 µM and the TGI (SF-295 CNS) was 9.17 µM. For the same molecule, the GI50 (SF-268 CNS) was 0.276 µM, the TGI (SF-268 CNS) was > 14.3 µM and the GI50 (SK-MEL-2 melanoma) was 0.233 µM. For the same molecule, the TGI (SK-MEL-2 melanoma) was 1.27 µM, the GI50 (SK-MEL-28 melanoma) was 0.223 µM and the TGI (SK-MEL-28 melanoma) was 1.76 µM. For the same molecule, the GI50 (SF-539 CNS) was 0.409 µM, the TGI (SF-539 CNS) was 4.19 µM and the GI50 (TK-10 renal) was 0.276 µM. The TGI (TK-10 renal) was 9.72 µM.
